Series [1] addresses T1, human GLP-1 receptor (Homo sapiens, UniProt P43220).
T1 construct: expressed in transfected cells; host or cells: BHK cells (parent BHKTS13), clone FCW467-12A/KZ10-1, with CRE luciferase
Put plainly: GLP-1 receptor potency, CRE luciferase reporter gene assay in BHK cells. It is filed as cell-based. Particulars: BHK cells expressing human GLP-1 receptor, read-out: EC50 GLP-1R. In short, it runs like this: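 Potency as cAMP-driven firefly luciferase signal after 3 h, 37° C exposure to 10-fold dilutions (final 1×10EE-13–1×10EE-6 M). Stable hGLP-1R/CRE-luc BHK clone, 5×10EE3 cells/well, medium containing 2% ovalbumin and 0.2% Pluronic F-68; EC50 (pM) from variable-slope non-linear regression.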

The nature of series [2]: Thioflavin T (ThT) fibrillation assay for physical stability. Particulars: 250 μM in 10 mM HEPES buffer, pH 7.5, 37° C., shaking 960 rpm. In kind it is physicochemical. In short, it runs like this:
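Fibrillation was followed by ThT (1 μM) fluorescence every 20 min, 444/485 nm, for 250 μM peptide in 10 mM HEPES pH 7.5 shaken at 960 rpm, 37° C. Lag time (t0−2τ) and apparent rate constant (1/τ) come from a sigmoidal fit. Recovery is % of initial concentration remaining soluble after centrifugation and filtration (RP-HPLC).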

Numbered stars: 1 amine (or outer) side, 2 acyl side, 3 side chain; on linkers, the order of the positions; unused ones are H or OH. Square brackets hold non-standard residues; d marks the D form. Side chains are listed from the residue outwards. Peptide text beside a SMILES is read from it. * marks the point of attachment. C18 diacid = O=C(O)CCCCCCCCCCCCCCCCC(=O)*; γGlu = O=C(O)[C@H](CCC(=O)[*:2])N[*:1]; Ac4c = NC1(C(=O)O)CCC1; AEEA = NCCOCCOCC(=O)O; Aib = CC(C)(N)C(=O)O

T1 sequence (P43220 24-463): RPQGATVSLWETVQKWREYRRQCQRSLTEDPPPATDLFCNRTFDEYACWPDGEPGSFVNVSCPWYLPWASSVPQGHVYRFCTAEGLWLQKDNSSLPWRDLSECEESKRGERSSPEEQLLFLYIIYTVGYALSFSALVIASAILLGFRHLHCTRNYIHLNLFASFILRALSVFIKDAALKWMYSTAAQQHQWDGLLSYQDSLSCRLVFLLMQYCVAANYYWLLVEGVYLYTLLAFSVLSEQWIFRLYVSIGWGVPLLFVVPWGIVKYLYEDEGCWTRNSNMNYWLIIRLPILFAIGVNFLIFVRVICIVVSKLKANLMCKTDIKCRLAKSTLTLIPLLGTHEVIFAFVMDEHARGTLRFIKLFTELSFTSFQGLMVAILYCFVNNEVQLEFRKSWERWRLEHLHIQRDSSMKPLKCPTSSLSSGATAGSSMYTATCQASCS

On to `CC(C)C[C@H](NC(=O)[C@H](CC(C)C)NC(=O)[C@H](Cc1c[nH]c2ccccc12)NC(=O)[C@H](CCC(N)=O)NC(=O)[C@@H](NC(=O)[C@H](Cc1ccccc1)NC(=O)[C@H](CCC(=O)O)NC(=O)[C@H](CCCNC(=N)N)NC(=O)[C@H](C)NC(=O)[C@H](CCCNC(=N)N)NC(=O)[C@H](CCCNC(=N)N)NC(=O)[C@H](CO)NC(=O)[C@H](CC(=O)O)NC(=O)[C@H](CC(C)C)NC(=O)[C@H](Cc1ccc(O)cc1)NC(=O)[C@H](CCCCN)NC(=O)[C@H](CO)NC(=O)[C@H](CC(C)C)NC(=O)[C@H](CC(=O)O)NC(=O)[C@H](CO)NC(=O)[C@@H](NC(=O)[C@H](Cc1ccccc1)NC(=O)[C@@H](NC(=O)CNC(=O)[C@H](CCC(N)=O)NC(=O)C(C)(C)NC(=O)[C@@H](N)Cc1c[nH]cn1)[C@@H](C)O)[C@@H](C)O)C(C)C)C(=O)N[C@@H](CC(N)=O)C(=O)N[C@@H](CCCCNC(=O)CC[C@H](NC(=O)CC[C@H](NC(=O)COCCOCCNC(=O)COCCOCCNC(=O)CC[C@H](NC(=O)CCCCCCCCCCCCCCCCC(=O)O)C(=O)O)C(=O)O)C(=O)O)C(N)=O` [Example 12, N^ε29-[(4S)-4-carboxy-4-[[(4S)-4-carboxy-4-[[2-[2-[2-[[2-[2-[2-[[(4S)-4-carboxy-4-(17-carboxyheptadecanoylamino)butanoyl]amino]ethoxy]ethoxy]acetyl]amino]ethoxy]ethoxy]acetyl]amino]butanoyl]amino]butanoyl]-[Aib2,Leu10,Arg20,Glu21,Leu27,Lys29]-Glucagon amide] (H-H[Aib]QGTFTSDLSKYLDSRRAREFVQWLLNK([γGlu-γGlu-AEEA-AEEA-γGlu-C18 diacid])-NH2), for which the EC50 in series [1] is 14.7 pM. Further, the THT assay Lag time (Ex. 76) in series [2] was determined as 45 h.
`CC(C)C[C@H](NC(=O)[C@H](Cc1ccc(O)cc1)NC(=O)[C@H](CCCNC(=N)N)NC(=O)[C@H](CO)NC(=O)[C@H](CC(C)C)NC(=O)[C@H](CC(=O)O)NC(=O)[C@H](CO)NC(=O)[C@@H](NC(=O)[C@H](Cc1ccccc1)NC(=O)[C@@H](NC(=O)CNC(=O)[C@H](CCC(N)=O)NC(=O)C1(NC(=O)[C@@H](N)Cc2c[nH]cn2)CCC1)[C@@H](C)O)[C@@H](C)O)C(=O)N[C@@H](CCC(=O)O)C(=O)N[C@@H](CO)C(=O)N[C@@H](CCCNC(=N)N)C(=O)N[C@@H](CCCNC(=N)N)C(=O)N[C@@H](C)C(=O)N[C@@H](CCCNC(=N)N)C(=O)N[C@@H](CCC(=O)O)C(=O)N[C@@H](Cc1ccccc1)C(=O)N[C@H](C(=O)N[C@@H](CCC(N)=O)C(=O)N[C@@H](Cc1c[nH]c2ccccc12)C(=O)N[C@@H](CC(C)C)C(=O)N[C@@H](CC(C)C)C(=O)N[C@@H](CCCCNC(=O)CC[C@H](NC(=O)CC[C@H](NC(=O)COCCOCCNC(=O)COCCOCCNC(=O)CC[C@H](NC(=O)CC[C@H](NC(=O)CCCCCCCCCCCCCCCCC(=O)O)C(=O)O)C(=O)O)C(=O)O)C(=O)O)C(=O)N[C@H](C(N)=O)[C@@H](C)O)C(C)C` [Example 59, N^ε28-[(4S)-4-carboxy-4-[[(4S)-4-carboxy-4-[[2-[2-[2-[[2-[2-[2-[[(4S)-4-carboxy-4-[[(4S)-4-carboxy-4-(17-carboxyheptadecanoylamino)butanoyl]amino]butanoyl]amino]ethoxy]ethoxy]acetyl]amino]ethoxy]ethoxy]acetyl]amino]butanoyl]amino]butanoyl]-[Acb2,Leu10,Arg12,Glu15,Arg20,Glu21,Leu27,Lys28]-Glucagon amide] (H-H[Ac4c]QGTFTSDLSRYLESRRAREFVQWLLK([γGlu-γGlu-AEEA-AEEA-γGlu-γGlu-C18 diacid])T-NH2; N-terminus assumed): the EC50 in series [1] was 4 pM. Besides, in series [2], the THT assay Lag time (Ex. 76) worked out at 12 h.
In the case of `CC(C)C[C@H](NC(=O)[C@H](CC(C)C)NC(=O)[C@H](Cc1c[nH]c2ccccc12)NC(=O)[C@H](CCC(N)=O)NC(=O)[C@@H](NC(=O)[C@H](Cc1ccccc1)NC(=O)[C@H](CCC(=O)O)NC(=O)[C@H](CCCNC(=N)N)NC(=O)[C@H](C)NC(=O)[C@H](CCCNC(=N)N)NC(=O)[C@H](CCCNC(=N)N)NC(=O)[C@H](CO)NC(=O)[C@H](CCC(=O)O)NC(=O)[C@H](CC(C)C)NC(=O)[C@H](Cc1ccc(O)cc1)NC(=O)[C@H](CCCCN)NC(=O)[C@H](CO)NC(=O)[C@H](CC(C)C)NC(=O)[C@H](CC(=O)O)NC(=O)[C@H](CO)NC(=O)[C@@H](NC(=O)[C@H](Cc1ccccc1)NC(=O)[C@@H](NC(=O)CNC(=O)[C@H](CCC(N)=O)NC(=O)C(C)(C)NC(=O)[C@@H](N)Cc1c[nH]cn1)[C@@H](C)O)[C@@H](C)O)C(C)C)C(=O)N[C@@H](CC(N)=O)C(=O)N[C@@H](CCCCNC(=O)CC[C@H](NC(=O)CC[C@H](NC(=O)COCCOCCNC(=O)CC[C@H](NC(=O)CCCCCCCCCCCCCCCCC(=O)O)C(=O)O)C(=O)O)C(=O)O)C(N)=O` [Example 40, N^ε29-[(4S)-4-carboxy-4-[[(4S)-4-carboxy-4-[[2-[2-[2-[[(4S)-4-carboxy-4-(17-carboxyheptadecanoylamino)butanoyl]amino]ethoxy]ethoxy]acetyl]amino]butanoyl]amino]butanoyl]-[Aib2,Leu10,Glu15,Arg20,Glu21,Leu27,Lys29]-Glucagon amide] (H-H[Aib]QGTFTSDLSKYLESRRAREFVQWLLNK([γGlu-γGlu-AEEA-γGlu-C18 diacid])-NH2; N-terminus assumed), the EC50 in series [1] amounted to 4 pM. The same compound had a THT assay Lag time (Ex. 76) in series [2] of 40 h.
On to `CC(C)C[C@H](NC(=O)[C@H](Cc1ccc(O)cc1)NC(=O)[C@H](CCCCN)NC(=O)[C@H](CO)NC(=O)[C@H](CC(C)C)NC(=O)[C@H](CC(=O)O)NC(=O)[C@H](CO)NC(=O)[C@@H](NC(=O)[C@H](Cc1ccccc1)NC(=O)[C@@H](NC(=O)CNC(=O)[C@H](CCC(N)=O)NC(=O)C(C)(C)NC(=O)[C@@H](N)Cc1c[nH]cn1)[C@@H](C)O)[C@@H](C)O)C(=O)N[C@@H](CCC(=O)O)C(=O)N[C@@H](CO)C(=O)N[C@@H](CCCCN)C(=O)N[C@@H](CCCNC(=N)N)C(=O)N[C@@H](C)C(=O)N[C@@H](CCCNC(=N)N)C(=O)N[C@@H](CCC(=O)O)C(=O)N[C@@H](Cc1ccccc1)C(=O)N[C@H](C(=O)N[C@@H](CCC(N)=O)C(=O)N[C@@H](Cc1c[nH]c2ccccc12)C(=O)N[C@@H](CC(C)C)C(=O)N[C@@H](CC(C)C)C(=O)N[C@@H](CCCCNC(=O)CC[C@H](NC(=O)CC[C@H](NC(=O)[C@H](CO)NC(=O)[C@H](CCC(=O)O)NC(=O)[C@H](CO)NC(=O)CC[C@H](NC(=O)CC[C@H](NC(=O)CCCCCCCCCCCCCCCCC(=O)O)C(=O)O)C(=O)O)C(=O)O)C(=O)O)C(=O)N[C@H](C(N)=O)[C@@H](C)O)C(C)C` [Example 52] (H-H[Aib]QGTFTSDLSKYLESKRAREFVQWLLK([γGlu-γGlu-Ser-Glu-Ser-γGlu-γGlu-C18 diacid])T-NH2; N-terminus assumed), for which the EC50 in series [1] turned out to be 4 pM. The compound also displayed a THT assay Lag time (Ex. 76) in series [2] of 45 h.
